Experimental data taken from patent US6858591B2, “Antibiotic AA 896 analogs” (Wyeth Holdings Corporation, priority 2001, dated 2005).
Values after ≈ are worked out from the molar mass of the structure shown. Where two headings read alike, the source gives them in different places.

Key:
Test in all cases: In vitro MIC, broth dilution
Type in all cases: cell-based
E. coli GC 4559 = conditions: Escherichia coli, GC4559
E. coli GC 4560 = conditions: Escherichia coli, GC4560
E. coli GC 3226 = conditions: Escherichia coli, GC3226
S. marcescens GC 4077 = conditions: Serratia marcescens, GC4077
C. albicans GC 3066 = conditions: Candida albicans, GC3066
M. morganii GC 4531 = conditions: Morganella morganii, GC4531
K. pneumoniae GC 4534 = conditions: Klebsiella pneumoniae, GC4534
E. cloacae GC 3783 = conditions: Enterobacter cloacae, GC3783
P. aeruginosa GC 4532 = conditions: Pseudomonas aeruginosa, GC4532
CNS GC 4537 = system: CNS GC 4537
Experimental: (§1) The minimum inhibitory concentration (MIC), the lowest concentration of the antibiotic which inhibits growth of the test organism, is determined by the broth dilution method using Muller-Hinton II […] (Baltimore Biological Laboratories) following the recommendations of National Committee for Clinical Laboratory Standards. [Reference for the Methods for dilution antimicrobial susceptibility tests for bacteria that grow aerobically: National Committee for Clinical Laboratory Standards, 1997. Approved standard M7-A National Committee for Clinical Laboratory Standards, Wayne, Pa.] An inoculum level of 5×10^5 CFU/ml, and a range of antibiotic concentrations (64-0.06 μg/ml) is used. The MIC is determined after the microtiter plates are incubated for 18 hours at 35° C. in an ambient air incubator. The test organisms comprise a spectrum of gram-positive bacteria including Staphylococcus sp., Streptococcus sp. and Enterococcus sp. These organisms include recent clinical isolates that are resistant to methicillin, penicillin and vancomycin.

CNS GC 4538 = system: CNS GC 4538
Experimental: as §1

CNS GC 4547 = system: CNS GC 4547
Experimental: as §1

E. faecalis GC 2242 = conditions: Enterococcus faecalis, GC2242
Experimental: as §1

E. faecalis GC 4555 = conditions: Enterococcus faecalis, GC4555
Experimental: as §1

E. faecalis GC 842 = conditions: Enterococcus faecalis, GC842
Experimental: as §1

S. aureus GC 1131 = conditions: Staphylococcus aureus, GC1131
Experimental: as §1

S. aureus GC 2216 = conditions: Staphylococcus aureus, GC2216
Experimental: as §1

S. aureus GC 4536 = conditions: Staphylococcus aureus, GC4536
Experimental: as §1

E. coli GC 2203 = conditions: Escherichia coli, GC2203
P. aeruginosa GC 2214 = conditions: Pseudomonas aeruginosa, GC2214
[1] = S. marcescens GC 4077, read-out: MIC
[2] = C. albicans GC 3066, read-out: MIC
[3] = M. morganii GC 4531, read-out: MIC
[4] = K. pneumoniae GC 4534, read-out: MIC
[5] = E. cloacae GC 3783, read-out: MIC
[6] = P. aeruginosa GC 4532, read-out: MIC
[7] = E. faecalis GC 2242, read-out: MIC
[8] = E. faecalis GC 4555, read-out: MIC
[9] = E. faecalis GC 842, read-out: MIC
[10] = S. aureus GC 1131, read-out: MIC
[11] = S. aureus GC 2216, read-out: MIC
[12] = S. aureus GC 4536, read-out: MIC
[13] = P. aeruginosa GC 2214, read-out: MIC

Row | Structure (SMILES) | MIC (E. coli GC 4559; E. coli GC 4559, read-out: MIC) | MIC (E. coli GC 4560; E. coli GC 4560, read-out: MIC) | MIC (E. coli GC 3226; E. coli GC 3226, read-out: MIC) | MIC (S. marcescens GC 4077; [1]) | MIC (C. albicans GC 3066; [2]) | MIC (M. morganii GC 4531; [3]) | MIC (K. pneumoniae GC 4534; [4]) | MIC (E. cloacae GC 3783; [5]) | MIC (P. aeruginosa GC 4532; [6]) | MIC (CNS GC 4537; CNS GC 4537, read-out: MIC) | MIC (CNS GC 4538; CNS GC 4538, read-out: MIC) | MIC (CNS GC 4547; CNS GC 4547, read-out: MIC) | MIC (E. faecalis GC 2242; [7]) | MIC (E. faecalis GC 4555; [8]) | MIC (E. faecalis GC 842; [9]) | MIC (S. aureus GC 1131; [10]) | MIC (S. aureus GC 2216; [11]) | MIC (S. aureus GC 4536; [12]) | MIC (E. coli GC 2203; E. coli GC 2203, read-out: MIC) | MIC (P. aeruginosa GC 2214; [13]) | other results
1 | COc1ccc(Cn2c(=O)ccn([C@@H]3OC([C@@H](O)[C@H](NCCCNC(=O)C(NC(=O)OCc4ccccc4)[C@@H](O)C(C)C)C(=O)OC(C)(C)C)[C@@H](O[Si](C)(C)C(C)(C)C)[C@H]3O[Si](C)(C)C(C)(C)C)c2=O)cc1 (stereo in doubt) [Example 3, tert-Butyl (5R,12S)-12-[(S)-[(3R,4R,5R)-3,4-bis{[tert-butyl(dimethyl)silyl]oxy}-5-(3-(4-methoxybenzyl)-2,4-dioxo-3,4-dihydro-1(2H)-pyrimidinyl)tetrahydro-2-furanyl](hydroxy)methyl]-5-[(1S)-1-hydroxy-2-methylpropyl]-3,6-dioxo-1-phenyl-2-oxa-4,7,11-triazatridecan-13-oate] | – | – | – | – | – | – | – | – | – | – | – | – | – | – | – | – | – | – | – | – | MIC (E. coli GC 4559): > 128 µg/mL; MIC (E. coli GC 4560): 128 µg/mL (≈ 123 µM); MIC (E. coli GC 3226): > 128 µg/mL; MIC (S. marcescens GC 4077): > 128 µg/mL; MIC (C. albicans GC 3066): 128 µg/mL (≈ 123 µM); MIC (M. morganii GC 4531): 128 µg/mL (≈ 123 µM); MIC (K. pneumoniae GC 4534): > 128 µg/mL; MIC (E. cloacae GC 3783): > 128 µg/mL; MIC (P. aeruginosa GC 4532): 128 µg/mL (≈ 123 µM); MIC (CNS GC 4537): > 128 µg/mL; MIC (CNS GC 4538): > 128 µg/mL; MIC (CNS GC 4547): 128 µg/mL (≈ 123 µM); MIC (E. faecalis GC 2242): 128 µg/mL (≈ 123 µM); MIC (E. faecalis GC 4555): 128 µg/mL (≈ 123 µM); MIC (E. faecalis GC 842): > 128 µg/mL; MIC (S. aureus GC 1131): > 128 µg/mL; MIC (S. aureus GC 2216): > 128 µg/mL; MIC (S. aureus GC 4536): > 128 µg/mL; MIC (E. coli GC 2203): > 128 µg/mL; MIC (P. aeruginosa GC 2214): 128 µg/mL (≈ 123 µM)
2 | COc1ccc(Cn2c(=O)ccn([C@@H]3OC(C(O)[C@H](NCCCNC(=O)[C@@H](N)CC(=O)O)C(=O)OC(C)(C)C)[C@@H](O[Si](C)(C)C(C)(C)C)[C@H]3O[Si](C)(C)C(C)(C)C)c2=O)cc1 (stereo in doubt) [Example 17, (3S)-3-Amino-4-[(3-{[(1S,2S)-2-[(3R,4R,5R)-3,4-bis{[tert-butyl(dimethyl)silyl]oxy}-5-(3-(4-methoxybenzyl)-2,4-dioxo-3,4-dihydro-1(2H)-pyrimidinyl)tetrahydro-2-furanyl]-1-(tert-butoxycarbonyl)-2-hydroxyethyl]amino}propyl)amino]-4-oxobutanoic acid] | > 128 µg/mL | > 128 µg/mL | > 128 µg/mL | > 128 µg/mL | > 128 µg/mL | > 128 µg/mL | > 128 µg/mL | > 128 µg/mL | > 128 µg/mL | > 128 µg/mL | 64 µg/mL (≈ 71.6 µM) | > 128 µg/mL | 4 µg/mL (≈ 4.47 µM) | 16 µg/mL (≈ 17.9 µM) | 32 µg/mL (≈ 35.8 µM) | 128 µg/mL (≈ 143 µM) | 32 µg/mL (≈ 35.8 µM) | 128 µg/mL (≈ 143 µM) | > 128 µg/mL | > 128 µg/mL | –
3 | COc1ccc(Cn2c(=O)ccn([C@@H]3OC([C@H](O)[C@H](NCCCNC(=O)[C@@H](NC(=O)OCc4ccccc4)C(C)O)C(=O)O)[C@@H](O)C3O[Si](C)(C)C(C)(C)C)c2=O)cc1 (stereo in doubt) [Example 46, (5S,12S)-12-[(R)-[(3R,4R,5R)-4-{[tert-butyl(dimethyl)silyl]oxy}-3-hydroxy-5-(3-(4-methoxy-benzyl)-2,4-dioxo-3,4-dihydro-1(2H)-pyrimidinyl)tetrahydro-2-furanyl](hydroxy)methyl]-5-[(1S)-1-hydroxyethyl]-3,6-dioxo-1-phenyl-2-oxa-4,7,11-triazatridecan-13-oic acid] | > 128 µg/mL | 128 µg/mL (≈ 152 µM) | > 128 µg/mL | > 128 µg/mL | 128 µg/mL (≈ 152 µM) | 128 µg/mL (≈ 152 µM) | > 128 µg/mL | > 128 µg/mL | 128 µg/mL (≈ 152 µM) | > 128 µg/mL | > 128 µg/mL | > 128 µg/mL | 128 µg/mL (≈ 152 µM) | 128 µg/mL (≈ 152 µM) | 128 µg/mL (≈ 152 µM) | > 128 µg/mL | > 128 µg/mL | > 128 µg/mL | > 128 µg/mL | 128 µg/mL (≈ 152 µM) | –
4 | CCCCCCCCCCCCCC(=O)OC(C)[C@H](NC(=O)OCc1ccccc1)C(=O)NCCCNC(C(=O)OCC)C(O)C1O[C@@H](n2ccc(=O)[nH]c2=O)[C@H](OC(C)=O)[C@@H]1OC(C)=O (stereo in doubt) [Example 58, Ethyl (5S)-12-[(R)-[(2R,3R,4R,5R)-3,4-bis(acetyloxy)-5-(2,4-dioxo-3,4-dihydropyrimidin-1(2 h)-yl)tetrahydrofuran-2-yl](hydroxy)methyl]-3,6-dioxo-1-phenyl-5-[(1S)-1-(tetradecanoyloxy)ethyl]-2-oxa-4,7,11-triazatridecan-13-oate] | > 128 µg/mL | > 128 µg/mL | > 128 µg/mL | > 128 µg/mL | > 128 µg/mL | > 128 µg/mL | > 128 µg/mL | > 128 µg/mL | > 128 µg/mL | > 128 µg/mL | > 128 µg/mL | > 128 µg/mL | > 128 µg/mL | > 128 µg/mL | > 128 µg/mL | > 128 µg/mL | > 128 µg/mL | > 128 µg/mL | > 128 µg/mL | > 128 µg/mL | –
5 | COc1ccc(Cn2c(=O)ccn([C@@H]3OC([C@H](O)[C@H](NCCCNC(=O)[C@@H](NC(=O)OCc4ccccc4)[C@@H](O)C(C)C)C(=O)OC(C)(C)C)[C@@H](O[Si](C)(C)C(C)(C)C)[C@H]3O[Si](C)(C)C(C)(C)C)c2=O)cc1 (stereo partly drawn) [Example 1, tert-Butyl (5S,12S)-12-[(R)-[(3R,4R,5R)-3,4-bis{[tert-butyl(dimethyl)silyl]oxy}-5-(3-(4-methoxybenzyl)-2,4-dioxo-3,4-dihydro-1(2H)-pyrimidinyl)tetrahydro-2-furanyl](hydroxy)methyl]-5-[(1S)-1-hydroxy-2-methylpropyl]-3,6-dioxo-1-phenyl-2-oxa-4,7,11-triazatridecan-13-oate] | – | – | – | – | – | – | – | – | – | – | – | – | – | – | – | – | – | – | – | – | MIC (E. coli GC 4559): > 128 µg/mL; MIC (E. coli GC 4560): > 128 µg/mL; MIC (E. coli GC 3226): > 128 µg/mL; MIC (S. marcescens GC 4077): > 128 µg/mL; MIC (C. albicans GC 3066): > 128 µg/mL; MIC (M. morganii GC 4531): > 128 µg/mL; MIC (K. pneumoniae GC 4534): > 128 µg/mL; MIC (E. cloacae GC 3783): > 128 µg/mL; MIC (P. aeruginosa GC 4532): 128 µg/mL (≈ 123 µM); MIC (CNS GC 4537): > 128 µg/mL; MIC (CNS GC 4538): > 128 µg/mL; MIC (CNS GC 4547): > 128 µg/mL; MIC (E. faecalis GC 2242): 128 µg/mL (≈ 123 µM); MIC (E. faecalis GC 4555): 128 µg/mL (≈ 123 µM); MIC (E. faecalis GC 842): > 128 µg/mL; MIC (S. aureus GC 1131): > 128 µg/mL; MIC (S. aureus GC 2216): > 128 µg/mL; MIC (S. aureus GC 4536): > 128 µg/mL; MIC (E. coli GC 2203): > 128 µg/mL; MIC (P. aeruginosa GC 2214): 128 µg/mL (≈ 123 µM)
6 | COc1ccc(Cn2c(=O)ccn([C@@H]3OC([C@H](O)[C@H](NCCCNC(=O)[C@@H](N)[C@@H](O)C(C)C)C(=O)OC(C)(C)C)[C@@H](O[Si](C)(C)C(C)(C)C)[C@H]3O[Si](C)(C)C(C)(C)C)c2=O)cc1 (stereo partly drawn) [Example 2, tert-Butyl (2S,3R)-2-[(3-{[(2S,3S)-2-amino-3-hydroxy-4-methylpentanoyl]amino}propyl)amino]-3-[(3R,4R,5R)-3,4-bis{[tert-butyl(dimethyl)silyl]oxy}-5-(3-(4-methoxybenzyl)-2,4-dioxo-3,4-dihydro-1(2H)-pyrimidinyl)tetrahydro-2-furanyl]-3-hydroxypropanoate] | > 128 µg/mL | > 128 µg/mL | > 128 µg/mL | > 128 µg/mL | > 128 µg/mL | > 128 µg/mL | > 128 µg/mL | > 128 µg/mL | > 128 µg/mL | 4 µg/mL (≈ 4.4 µM) | 4 µg/mL (≈ 4.4 µM) | 16 µg/mL (≈ 17.6 µM) | 4 µg/mL (≈ 4.4 µM) | 4 µg/mL (≈ 4.4 µM) | 8 µg/mL (≈ 8.81 µM) | 4 µg/mL (≈ 4.4 µM) | 4 µg/mL (≈ 4.4 µM) | 16 µg/mL (≈ 17.6 µM) | > 128 µg/mL | > 128 µg/mL | –
